The text below walks through data of PMC3705412, “PTP1B Inhibitory and Anti-Inflammatory Effects of Secondary Metabolites Isolated from the Marine-Derived Fungus Penicillium sp. JF-55” (Marine Drugs, 2013).

Experiment [1] deals with IL-1β production in murine peritoneal macrophages. Nature of the experiment: IL-1β production in LPS-stimulated macrophages, ELISA. It is filed as cell-based, murine (C57BL/6 mice). The note with it: Mus musculus, Peritoneal macrophage; pre-treated 12 h, LPS 1 μg/mL 18 h. How it is done:
(§1) C57BL/6 mice were purchased from Orient Bio Co. (Sungnam, Kyung-Kido, Korea). TG-elicited peritoneal macrophages were harvested four days after intraperitoneal (i.p.) injection of 3 mL of TG [37]. Peritoneal lavage was performed using 8 mL of Hanks’ Balanced Salt Solution containing 10 U/mL heparin. The cells were distributed in Roswell Park Memorial Institute medium (RPMI) supplemented with 10% heat-inactivated FBS, in 6-well tissue culture plates (5 × 10^6 cells/mL). The level of PGE2, TNF-α or IL-1β present in each sample was determined using a commercially available kit from R & D Systems. The assay was performed according to the manufacturer’s instructions. Briefly, murine peritoneal macrophages were cultured in 24-well plates, pre-incubated for 12 h with different concentrations of compounds 1–3, and then stimulated for 18 h with LPS. The cell culture supernatants were then immediately collected after treatment and centrifuged at 13,000× g for 2 min to remove particulate matter. The medium was added to a 96-well plate pre-coated with affinity-purified PGE2-specific polyclonal antibodies or the medium was added to a 96-well plate pre-coated with affinity-purified polyclonal antibodies that were specific to mouse TNF-α or IL-1β. An enzyme-linked polyclonal antibody specific for PGE2, mouse TNF-α or IL-1β was added to the wells for 20 h, followed by a final wash to remove any unbound antibody-enzyme reagent. A substrate solution was added, and the intensity of the color produced, which was measured at 450 nm (the correction wavelength was set at 540 nm or 570 nm), was proportional to the amount of PGE2, TNF-α or IL-1β present.

Experiment [2] concerns the target T1, PTP1B (human, recombinant) (Homo sapiens, UniProt P18031).
T1 construct: purchased BIOMOL Research Laboratories, Inc
T1 sequence (P18031 1-435): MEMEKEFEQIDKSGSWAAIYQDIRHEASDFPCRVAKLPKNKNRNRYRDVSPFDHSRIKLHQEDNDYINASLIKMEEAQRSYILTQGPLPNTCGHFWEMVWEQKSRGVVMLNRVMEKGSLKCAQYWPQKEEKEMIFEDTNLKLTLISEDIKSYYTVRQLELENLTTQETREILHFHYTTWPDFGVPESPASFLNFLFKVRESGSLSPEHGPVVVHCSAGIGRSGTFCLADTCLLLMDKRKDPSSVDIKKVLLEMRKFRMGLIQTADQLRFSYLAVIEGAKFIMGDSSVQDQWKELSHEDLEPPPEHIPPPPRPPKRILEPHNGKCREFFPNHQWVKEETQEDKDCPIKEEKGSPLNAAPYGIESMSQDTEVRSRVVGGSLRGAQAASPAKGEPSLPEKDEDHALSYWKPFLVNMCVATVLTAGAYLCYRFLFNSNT
The experiment is described as follows: PTP1B assay (pNPP hydrolysis). It is filed as biochemical. To be noted: for IC50: 2 mM pNPP, pH 6.0, 30 °C, 30 min, read-out: PTP1B inhibitory activity IC50. The procedure: PTP1B (human, recombinant) was purchased from BIOMOL Research Laboratories, Inc. Enzyme activity was measured in a reaction mixture containing 2 mM p-nitrophenyl phosphate (pNPP) in 50 mM citrate, pH 6.0 (composition: 0.1 M NaCl, 1 mM EDTA, and 1 mM dithiothreitol (DTT)). The reaction mixture was placed in an incubator maintained at 30 °C for 30 min, and the reaction was terminated by the addition of 1 N NaOH. The amount of p-nitrophenol produced was estimated by measuring the increase in absorbance at 405 nm. The nonenzymatic hydrolysis of 2 mM pNPP was corrected by measuring the increase in absorbance at 405 nm in the absence of PTP1B enzyme. For the kinetic analysis, the reaction mixture consisted of different concentrations of pNPP as a PTP1B substrate in the absence or presence of compound 1, and assays were performed as described above. The Michaelis-Menten constant (Km) and maximum velocity (Vmax) of PTP1B were determined by the Lineweaver-Burk plot using a GraphPad Prism® 4 program (GraphPad Software Inc., San Diego, CA, USA).

The subject of another experiment is CD4. More on the design: method as in doi:10.1351/pac199466102383. To be noted: previously reported ref 43; cited from earlier work.
Experiment [3] deals with TNF-α production in murine peritoneal macrophages. Nature of the experiment: TNF-α production in LPS-stimulated macrophages, ELISA. It counts as cell-based, murine (C57BL/6 mice). To be noted: Mus musculus, Peritoneal macrophage; pre-treated 12 h, LPS 1 μg/mL 18 h. How it is done: as §1
On the technique in general: ELISA stands for enzyme-linked immunosorbent assay.

The subject of experiment [4] is COX-2-derived PGE2 production in murine peritoneal macrophages. Nature of the experiment: PGE2 production in LPS-stimulated macrophages, ELISA. It counts as cell-based, murine (C57BL/6 mice). The note with it: Mus musculus, Peritoneal macrophage; pre-treated 12 h, LPS 1 μg/mL 18 h. How it is done: as §1
Experiment [5] relates to iNOS-derived NO production in murine peritoneal macrophages. Nature of the experiment: Nitrite (NO) production in LPS-stimulated macrophages, Griess reaction. It counts as cell-based, murine (C57BL/6 mice). The note with it: Mus musculus, Peritoneal macrophage; pre-treated 12 h, LPS 1 μg/mL 18 h. The procedure: The expression of pro-inflammatory enzymes, including COX-2 and iNOS, plays an important role in immune-activated macrophages via the production of COX-2-derived PGE2 and iNOS-derived NO [20, 21]. To investigate the effects of compounds on iNOS-derived NO and COX-2-derived PGE2 production, and iNOS and COX-2 expression in LPS-stimulated macrophages, murine peritoneal macrophages were stimulated with LPS (1 μg/mL) for 18 h in the presence or absence of non-cytotoxic concentrations of compounds 1–3 (Figure S1). […] The finding that penstyrylpyrone (1) suppressed LPS-induced pro-inflammatory mediators, such as NO, PGE2, iNOS, and COX-2, led further investigation of the effects of penstyrylpyrone (1) on LPS-induced TNF-α and IL-1β production, which are other pro-inflammatory mediators.
C57BL/6 mice were purchased from Orient Bio Co. (Sungnam, Kyung-Kido, Korea). TG-elicited peritoneal macrophages were harvested four days after intraperitoneal (i.p.) injection of 3 mL of TG [37]. Peritoneal lavage was performed using 8 mL of Hanks’ Balanced Salt Solution containing 10 U/mL heparin. The cells were distributed in Roswell Park Memorial Institute medium (RPMI) supplemented with 10% heat-inactivated FBS, in 6-well tissue culture plates (5 × 10^6 cells/mL).
The production of nitrite, a stable end product of NO oxidation, was used as a measure of iNOS activity. The nitrite present in the conditioned medium was determined using a method based on the Griess reaction.

In the case of `CC1=Cc2oc3cc(O)c(O)c(C(=O)O)c3c(=O)c2CO1` [Anhydrofulvic acid (2), anhydrofulvic acid], the IC50 (commonly the point on the concentration scale where inhibition reaches its midpoint) in experiment [1] is greater than 40 µM; in experiment [2], 1.9 µM; in experiment [3] it was greater than 40 µM; in experiment [4], greater than 40 µM; in experiment [5], greater than 40 µM. Also, in experiment [2] (different concentrations of pNPP), the “Mode of PTP1B inhibition (Lineweaver-Burk, non-linear regression)” value is on record as “competitive”. For the same compound, the CD4-binding activity result in the experiment with CD4 is on record as “weak”.

Take `Cc1cc(=O)c2c(o1)-c1c(cc(O)c(O)c1C(=O)O)OC2` [Citromycetin (3), citromycetin]: the IC50 in experiment [1] was greater than 40 µM; in experiment [2] it was greater than 25.8 µM; in experiment [3], greater than 40 µM; in experiment [4], greater than 40 µM; in experiment [5], greater than 40 µM. Also, the CD4-binding activity entry with CD4 is recorded as “weak”.
